Data: patent US8492341B2, “Amyloid-β binding peptides” (Alzyme Pty Ltd., priority 2006, dated 2013)

Tests used:
human Aβ1-42 = human Aβ1-42 (Homo sapiens, UniProt P05067); test: DCF fluorescence assay of H2O2 production (SOD-like activity) by human Aβ1-42; type: biochemical; conditions: P<0.001
Experimental: The three candidate peptides (15merTNP, 6merPLP and 6merMTM) were examined to determine whether they could attenuate Aβ's SOD-like activity in vitro. A DCF fluorescence assay was used to assess the efficacy of these peptides on altering the production of physiological (brain) concentrations (200 nM) of human Aβ1-42.
Aβ species were prepared and the assay run as described previously (i.e. Aβ1-42 at 200 nM and Copper and Dopamine concentrations remain unchanged). Peptide analogue MP2 (SEQ ID NO:2) was added to Aβ1-42+Cu solutions at ratios ranging from 0.005:1 to 10.0:1 (i.e. a ration of 0.005:1 would contain 1 nM of respective peptide). The peptide was dissolved in PBS pH7.5. The effect of MP2 on H2O2 production by human Aβ1-42 was determined in triplicate in three separate experiments (i.e. n=9) for doses ranging from 100 to 2000 nM (FIG. 1). These were compared against the level of H2O2 produced by human Aβ1-42 [test peptide analogue MP2+positive control peptide 15merTNP; three experiments done in triplicate, […]]. All data are presented as means±SEM.
For all assays run, the 15merTNP peptide (SEQ ID NO: 3), was included as a positive control for the assay and for comparing its activity with that of the modelled peptide analogue MP2. The effect of 15merTNP (200 nM) on H2O2 production by human Aβ1-42, was determined in triplicate in each of the 12 DCF assays (i.e. n=36) performed in this study.

[1] = In vitro peptide stability in 10% rodent brain homogenate; type: in vitro ADME, rat
Experimental: For the peptide stability assay in vitro, both 15merTNP and peptide analogue MP2 were incubated separately with fresh 10% rodent brain homogenate to model degradation in tissues. In order to create a physiological dose of peptide in the in vitro assay, both radioactive (^3H-labelled; hot) and non-radioactive (cold) peptides were combined in a set ratio. Cold peptide was added at a dose of […] per ml of 10% brain homogenate. Hot peptide was added at a dose of 250 μCi per ml 10% brain homogenate. Following the addition of hot and cold peptide; the homogenate was vortexed and incubated for different time points. The reaction was stopped by adding complete protease inhibitor cocktail and the samples analysed.
The biological stability of the peptides was evaluated by incubating them (90 nmol) in fresh 10% rodent brain homogenate for different times at 37° C. The amount of intact peptide was estimated by running the supernatant of the homogenate on a 16% Tricine gel to separate peptide that had not had its amino acid sequence degraded. FIG. 3 illustrates the relative stability of 15merTNP and peptide analogue MP2 over two hours run on a 16% Tricine gel from time 0-120 min with samples run in duplicate. The values correspond to the in vitro half-life, which is defined as the time needed for 50% degradation of the peptide.

[2] = design: species or system mice (129×1 strain); conditions: mouse, in vivo
Experimental: Another essential requirement of drug development is the ability of the peptide to cross the BBB and impact on targeted tissue. To measure the ability of 15merTNP and peptide analogue MP2 to cross the BBB, intracerebroventricular (i.c.v) delivery was assessed. The use of i.c.v injections on animal models allows for high doses to be delivered straight to the ventricular spaces where it can cross the parenchyma layer to the brain matter.
For i.c.v injections, control mice (129×1 strain) were anesthetized with intraperitoneal ketamine/xylazine at a dose of 10 ml/kg and then administered with 200 μg of either peptide (90 nmol). Both radioactive (^3H-labelled; hot) and non-radioactive (cold) was used to allow physiological doses of peptide to be delivered.
To determine whether the peptides had effectively penetrated into the brain parenchyma, a capillary depletion experiment was performed. After 25 min post injection the animal was sacrificed and the brain removed. This was homogenized and centrifuged for 10 min at 13000 rpm at 4° C. resulting in a supernatant containing predominately radioactivity from the cortex and a pellet with radioactivity from the capillaries and endothelium. A comparison of radioactivity in each sample was conducted to assess percentage of peptide movement into the cortex. The amount of radioactivity in the capillary pellet of mice that were perfused and not perfused with saline solution was compared to determine the percentage of peptide bound to the luminal surface of the capillaries and sequestered by brain endothelial cells.
A detailed necropsy was performed on each animal following perfusion to thoroughly assess peptide movement throughout peripheral organs, central nervous tissue and blood. […] Thus the concentration of labelled tritium could be measured per mass of sample and using this and the known ratio of non-labelled peptide present, the concentration of total peptide could be determined.
The pharmacokinetic profile of peptide analogue MP2 over four time points, post i.c.v injection into the CNS was determined. […]

human Aβ1-42, sequence (P05067 672-713): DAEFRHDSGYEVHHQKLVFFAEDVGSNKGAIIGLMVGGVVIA

## Ac-NRTPQMLKR-NH2 [MP2, Ac-Asn-Arg-Thr-Pro-Gln-Met-Leu-Lys-Arg-NH2]
Human Aβ1-42; 100 and 200 nM peptide
  H2O2 levels produced by human Aβ1-42: significant reduction
Human Aβ1-42; peptide doses ≧1000 nM
  H2O2 levels produced by human Aβ1-42: significantly increased
[1]; 10% brain homogenate, 37° C., listed as Peptide analogue MP2
  Stability in rat brain homogenate (in vitro half-life): >24 h
[1]; 10% rodent brain homogenate, 24 hour time period
  stability relative to 15merTNP: significantly more stable
[1]; rat, fresh 10% brain homogenate, 10% brain homogenate, 37° C.
  half-life at 2.5 mmol per ml: > 24 h
[2]
  crossing of the blood brain barrier: poorly
  peptide removed from the CNS: 99%
